# Measured values reported in US20230072683A1, “PYRIDO-PYRIMIDIN DERIVATIVES AND PHARMACEUTICAL COMPOSITION, FOR USE IN PREVENTING OR TREATING PI3 KINASE RELATED DISEASES, COMPRISING SAME AS ACTIVE INGREDIENT” (BORYUNG PHARMACEUTICAL CO., LTD, priority 2019, published 2023).
# How the values were obtained:
# DNA-PK(h) = DNA-PK(h) (Homo sapiens, UniProt P78527); assay: Evaluation of inhibitory activity against DNA-PK (HTRF kinase assay, GST-cMyc-p53 substrate); format: biochemical; conditions: for inhibition at 0.01 µM: compound concentration 0.01 μM, read-out: EXP_VALUE(% Inhibition) DNA-PK(h) 0.01 μM; for inhibition at 0.1 µM: compound concentration 0.1 μM, read-out: EXP_VALUE(% Inhibition) DNA-PK(h) 0.1 μM
# Method in brief: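 p53 Ser15 phosphorylation by human DNA-PK was measured by time-resolved FRET ratio (665/620 nm ×10000) using Eu-labelled anti-phospho-Ser15 and d2 anti-GST antibodies. Substrate GST-cMyc-p53 at 50 μM; Mg/ATP-initiated, 30 min at room temperature, EDTA stop.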
# [1] = target: PI3K-δ (PI3K(p1108/p857) (h)) (Homo sapiens, UniProt O00329); assay: Evaluation of inhibitory activity against PI3K-δ (HTRF kinase assay); format: biochemical; conditions: for inhibition at 0.01 µM: compound concentration 0.01 μM, read-out: EXP_VALUE(% Inhibition) PI3K-δ 0.01 μM; for inhibition at 0.1 µM: compound concentration 0.1 μM, read-out: EXP_VALUE(% Inhibition) PI3K-δ 0.1 μM
# Method in brief: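 HTRF read-out (665/620 nm ratio ×10000) used Eu-labelled anti-GST, GST-tagged GRP1 PH domain and streptavidin-allophycocyanin after EDTA/PIP3 stop.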
# Chain of PI3K-δ (PI3K(p1108/p857) (h)) (O00329 whole entry, the tested form may be a part): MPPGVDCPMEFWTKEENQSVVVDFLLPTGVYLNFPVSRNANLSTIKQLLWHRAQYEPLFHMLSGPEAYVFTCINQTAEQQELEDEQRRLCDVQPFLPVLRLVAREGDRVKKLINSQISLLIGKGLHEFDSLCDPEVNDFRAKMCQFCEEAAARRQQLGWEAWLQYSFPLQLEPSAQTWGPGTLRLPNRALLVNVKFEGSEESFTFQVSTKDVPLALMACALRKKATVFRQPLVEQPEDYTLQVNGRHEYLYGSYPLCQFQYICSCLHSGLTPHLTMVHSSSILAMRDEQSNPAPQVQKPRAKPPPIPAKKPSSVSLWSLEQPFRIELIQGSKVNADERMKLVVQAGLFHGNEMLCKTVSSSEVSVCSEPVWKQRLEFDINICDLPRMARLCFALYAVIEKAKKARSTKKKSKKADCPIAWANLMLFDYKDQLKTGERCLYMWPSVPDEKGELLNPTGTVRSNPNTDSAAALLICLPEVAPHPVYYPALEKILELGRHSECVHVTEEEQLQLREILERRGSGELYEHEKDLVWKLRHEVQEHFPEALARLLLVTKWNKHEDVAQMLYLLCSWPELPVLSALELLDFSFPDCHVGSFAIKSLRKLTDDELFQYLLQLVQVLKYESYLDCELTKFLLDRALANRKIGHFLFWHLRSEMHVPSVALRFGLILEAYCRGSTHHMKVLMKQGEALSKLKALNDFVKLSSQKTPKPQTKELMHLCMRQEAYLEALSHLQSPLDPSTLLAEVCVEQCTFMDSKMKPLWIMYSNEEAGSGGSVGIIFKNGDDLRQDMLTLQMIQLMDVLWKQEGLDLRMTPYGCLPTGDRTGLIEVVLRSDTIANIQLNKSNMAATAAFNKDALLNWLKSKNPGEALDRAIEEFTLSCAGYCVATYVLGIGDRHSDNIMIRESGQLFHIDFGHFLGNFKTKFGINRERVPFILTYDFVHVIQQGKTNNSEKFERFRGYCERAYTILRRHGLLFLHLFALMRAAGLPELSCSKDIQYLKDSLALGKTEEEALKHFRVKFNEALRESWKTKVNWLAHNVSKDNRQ
# Chain of PI3K-δ (PI3K(p1108/p857) (h)) (P27986 whole entry partner, the tested form may be a part): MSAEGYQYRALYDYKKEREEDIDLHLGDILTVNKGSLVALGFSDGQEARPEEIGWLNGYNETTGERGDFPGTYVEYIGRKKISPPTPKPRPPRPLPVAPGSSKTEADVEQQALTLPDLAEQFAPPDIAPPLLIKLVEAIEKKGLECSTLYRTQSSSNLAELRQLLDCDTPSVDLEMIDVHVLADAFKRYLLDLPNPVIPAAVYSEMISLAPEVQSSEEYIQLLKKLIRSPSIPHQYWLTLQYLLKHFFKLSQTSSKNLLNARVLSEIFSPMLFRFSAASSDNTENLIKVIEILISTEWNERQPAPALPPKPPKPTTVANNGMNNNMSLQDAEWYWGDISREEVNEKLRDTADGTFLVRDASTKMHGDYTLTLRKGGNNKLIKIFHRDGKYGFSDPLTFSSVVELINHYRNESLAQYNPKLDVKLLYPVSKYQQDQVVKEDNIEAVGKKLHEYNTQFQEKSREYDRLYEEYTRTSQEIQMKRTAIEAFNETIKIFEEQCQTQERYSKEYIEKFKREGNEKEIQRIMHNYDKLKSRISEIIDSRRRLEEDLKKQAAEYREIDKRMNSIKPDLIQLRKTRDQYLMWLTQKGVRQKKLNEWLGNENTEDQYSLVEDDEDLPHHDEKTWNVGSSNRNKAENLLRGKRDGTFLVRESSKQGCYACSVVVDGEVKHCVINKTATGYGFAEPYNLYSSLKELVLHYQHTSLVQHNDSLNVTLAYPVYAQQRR
inhibition at 0.01 µM (DNA-PK(h)),inhibition at 0.1 µM (DNA-PK(h)),inhibition at 0.01 µM [1],inhibition at 0.1 µM [1],SMILES
12%,59%,22%,65%,"CCNc1cccc2c(Cl)c([C@H](C)Nc3ncnc4[nH]ccc(=O)c34)n(-c3ccccc3)c(=O)c12 [Example 325, (S)-4-((1-(4-chloro-8-(ethylamino)-1-oxo-2-phenyl-1,2-dihydroisoquinolin-3-yl)ethyl)amino)pyrido[2,3-d]pyrimidin-5(8H)-one]"
-4%,24%,17%,51%,"C[C@H](Nc1ncnc2[nH]ccc(=O)c12)c1c(Cl)c2cccc(N3CCN(c4ccccc4)CC3)c2c(=O)n1-c1ccccc1 [Example 326, (S)-4-((1-(4-chloro-1-oxo-2-phenyl-8-(4-phenylpiperazin-1-yl)-1,2-dihydroisoquinolin-3-yl)ethyl)amino)pyrido[2,3-d]pyrimidin-5(8H)-one]"
-13%,8%,4%,25%,"C[C@H](Nc1ncnc2[nH]ccc(=O)c12)c1c(Cl)c2cccc(N3C[C@]4(C)C[C@H]3CC(C)(C)C4)c2c(=O)n1-c1ccccc1 [Example 327, 4-(((S)-1-(4-chloro-1-oxo-2-phenyl-8-((1S,5R)-1,3,3-trimethyl-6-azabicyclo[3.2.1]octan-6-yl)-1,2-dihydroisoquinolin-3-yl)ethyl)amino)pyrido[2,3-d]pyrimidin-5(8H)-one]"
2%,12%,17%,42%,"C[C@H](Nc1ncnc2[nH]ccc(=O)c12)c1c(Cl)c2cccc(N3CCC4CCCCC4C3)c2c(=O)n1-c1ccccc1 (stereo partly drawn) [Example 328, 4′-chloro-3′-((S)-1-((5-oxo-5,8-dihydropyrido[2,3-d]pyrimidin-4-yl)amino)ethyl)-2′-phenyl-3,4,4a,5,6,7,8,8a-octahydro-1H-[2,8′-biisoquinolin]-1′(2′H)-one]"
4%,23%,19%,55%,"Cc1ccc2c(c1)CN(c1cccc3c(Cl)c([C@H](C)Nc4ncnc5[nH]ccc(=O)c45)n(-c4ccccc4)c(=O)c13)CC2 [Example 329, (S)-4′-chloro-7-methyl-3′-(1-((5-oxo-5,8-dihydropyrido[2,3-d]pyrimidin-4-yl)amino)ethyl)-2′-phenyl-3,4-dihydro-1H-[2,8′-biisoquinolin]-1′(2′H)-one]"
10%,32%,30%,72%,"C[C@H](Nc1ncnc2[nH]ccc(=O)c12)c1c(Cl)c2cccc(N3CCc4ccsc4C3)c2c(=O)n1-c1ccccc1 [Example 330, (S)-4-((1-(4-chloro-8-(4,7-dihydrothieno[2,3-c]pyridin-6(5H)-yl)-1-oxo-2-phenyl-1,2-dihydroisoquinolin-3-yl)ethyl)amino)pyrido[2,3-d]pyrimidin-5(8H)-one]"
31%,76%,24%,74%,"C[C@H](Nc1ncnc2[nH]ccc(=O)c12)c1c(Cl)c2cccc(NC3CCOC3)c2c(=O)n1-c1ccccc1 (stereo partly drawn) [Example 331, 4-(((1S)-1-(4-chloro-1-oxo-2-phenyl-8-((tetrahydrofuran-3-yl)amino)-1,2-dihydroisoquinolin-3-yl)ethyl)amino)pyrido[2,3-d]pyrimidin-5(8H)-one]"
-1%,33%,30%,75%,"C[C@H](Nc1ncnc2[nH]ccc(=O)c12)c1c(Cl)c2cccc(NC3CCOCC3)c2c(=O)n1-c1ccccc1 [Example 332, (S)-4-((1-(4-chloro-1-oxo-2-phenyl-8-((tetrahydro-2H-pyran-4-yl)amino)-1,2-dihydroisoquinolin-3-yl)ethyl)amino)pyrido[2,3-d]pyrimidin-5(8H)-one]"
17%,62%,46%,79%,"C[C@H](Nc1ncnc2[nH]ccc(=O)c12)c1c(Cl)c2cccc(N3CCN(c4ccccn4)CC3)c2c(=O)n1-c1ccccc1 [Example 333, (S)-4-((1-(4-chloro-1-oxo-2-phenyl-8-(4-(pyridin-2-yl)piperazin-1-yl)-1,2-dihydroisoquinolin-3-yl)ethyl)amino)pyrido[2,3-d]pyrimidin-5(8H)-one]"
10%,27%,9%,49%,"C[C@H](Nc1ncnc2[nH]ccc(=O)c12)c1c(Cl)c2cccc(N(C)Cc3ccc4ccccc4c3)c2c(=O)n1-c1ccccc1 [Example 334, (S)-4-((1-(4-chloro-8-(methyl(naphthalen-2-ylmethyl)amino)-1-oxo-2-phenyl-1,2-dihydroisoquinolin-3-yl)ethyl)amino)pyrido[2,3-d]pyrimidin-5(8H)-one]"
13%,52%,31%,95%,"C[C@H](Nc1ncnc2[nH]ccc(=O)c12)c1c(Cl)c2cccc(NCCc3ccc(Cl)cc3)c2c(=O)n1-c1ccccc1 [Example 335, (S)-4-((1-(4-chloro-8-((4-chlorophenethyl)amino)-1-oxo-2-phenyl-1,2-dihydroisoquinolin-3-yl)ethyl)amino)pyrido[2,3-d]pyrimidin-5(8H)-one]"
7%,14%,6%,19%,"C[C@H](Nc1ncnc2[nH]ccc(=O)c12)c1c(Cl)c2cccc(N3CCC(c4ccccc4)CC3)c2c(=O)n1-c1ccccc1 [Example 336, (S)-4-((1-(4-chloro-1-oxo-2-phenyl-8-(4-phenylpiperidin-1-yl)-1,2-dihydroisoquinolin-3-yl)ethyl)amino)pyrido[2,3-d]pyrimidin-5(8H)-one]"
13%,63%,27%,70%,"C[C@H](Nc1ncnc2[nH]ccc(=O)c12)c1c(Cl)c2cccc(N3CCC[C@H]3C(N)=O)c2c(=O)n1-c1ccccc1 [Example 337, (S)-1-(4-chloro-1-oxo-3-((S)-1-((5-oxo-5,8-dihydropyrido[2,3-d]pyrimidin-4-yl)amino)ethyl)-2-phenyl-1,2-dihydroisoquinolin-8-yl) pyrrolidine-2-carboxamide]"
-2%,35%,3%,19%,"C[C@H](Nc1ncnc2[nH]ccc(=O)c12)c1c(Cl)c2cccc(N3CCC[C@H]3CN3CCCC3)c2c(=O)n1-c1ccccc1 [Example 338, 4-(((S)-1-(4-chloro-1-oxo-2-phenyl-8-((S)-2-(pyrrolidin-1-ylmethyl)pyrrolidin-1-yl)-1,2-dihydroisoquinolin-3-yl)ethyl)amino)pyrido[2,3-d]pyrimidin-5(8H)-one]"
8%,52%,69%,20%,"C[C@H](Nc1ncnc2[nH]ccc(=O)c12)c1c(Cl)c2cccc(N3CCCC3O)c2c(=O)n1-c1ccccc1 (stereo partly drawn) [Example 339, 4-(((1S)-1-(4-chloro-8-(2-hydroxypyrrolidin-1-yl)-1-oxo-2-phenyl-1,2-dihydroisoquinolin-3-yl)ethyl)amino)pyrido[2,3-d]pyrimidin-5(8H)-one]"
21%,67%,43%,91%,"C[C@H](Nc1ncnc2[nH]ccc(=O)c12)c1c(Cl)c2cccc(N3Cc4ccccc4C3)c2c(=O)n1-c1ccccc1 [Example 340, (S)-4-((1-(4-chloro-8-(isoindolin-2-yl)-1-oxo-2-phenyl-1,2-dihydroisoquinolin-3-yl)ethyl)amino)pyrido[2,3-d]pyrimidin-5(8H)-one]"
13%,56%,62%,91%,"C[C@H](Nc1ncnc2[nH]ccc(=O)c12)c1c(Cl)c2cccc(N3CCc4ccccc43)c2c(=O)n1-c1ccccc1 [Example 341, (S)-4-((1-(4-chloro-8-(indolin-1-yl)-1-oxo-2-phenyl-1,2-dihydroisoquinolin-3-yl)ethyl)amino)pyrido[2,3-d]pyrimidin-5(8H)-one]"
9%,58%,15%,45%,"C[C@H](Nc1ncnc2[nH]ccc(=O)c12)c1c(Cl)c2cccc(N3CC4CCCC4C3)c2c(=O)n1-c1ccccc1 (stereo partly drawn) [Example 342, 4-(((1S)-1-(4-chloro-8-(hexahydrocyclopenta[c]pyrrol-2 (1H)-yl)-1-oxo-2-phenyl-1,2-dihydroisoquinolin-3-yl)ethyl)amino)pyrido[2,3-d]pyrimidin-5(8H)-one]"
-1%,,8%,,"C[C@H](Nc1ncnc2[nH]ccc(=O)c12)c1c(Cl)c2cccc(Nc3ccccc3)c2c(=O)n1-c1ccccc1 [Example 343, (S)-4-((1-(4-chloro-1-oxo-2-phenyl-8-(phenylamino)-1,2-dihydroisoquinolin-3-yl)ethyl)amino)pyrido[2,3-d]pyrimidin-5(8H)-one]"
-7%,,13%,,"C[C@H](Nc1ncnc2[nH]ccc(=O)c12)c1c(Cl)c2cccc(Nc3ccc(F)cc3)c2c(=O)n1-c1ccccc1 [Example 344, (S)-4-((1-(4-chloro-8-((4-fluorophenyl)amino)-1-oxo-2-phenyl-1,2-dihydroisoquinolin-3-yl)ethyl)amino)pyrido[2,3-d]pyrimidin-5(8H)-one]"
